Experimental data published in PubChem BioAssay (NCI).
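Compound exposure: 48 hours, 5 concentrations, 96-well plates. Here, GI50 denotes the concentration required for 50% inhibition of growth. At the TGI there is no net growth.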

Assays:
Experiment in all cases: NCI tumour cell line growth inhibition, 48 h
K-562 leukemia = test system: K-562 leukemia
OVCAR-5 ovarian = test system: OVCAR-5 ovarian
SR leukemia = test system: SR leukemia
HOP-62 NSCLC = test system: HOP-62 NSCLC
LOX IMVI melanoma = test system: LOX IMVI melanoma
RPMI-8226 leukemia = test system: RPMI-8226 leukemia
786-0 renal = test system: 786-0 renal
MOLT-4 leukemia = test system: MOLT-4 leukemia
U251 CNS = test system: U251 CNS
A498 renal = test system: A498 renal
TK-10 renal = test system: TK-10 renal
MALME-3M melanoma = test system: MALME-3M melanoma
SF-268 CNS = test system: SF-268 CNS
KM12 colon = test system: KM12 colon
NCI-H460 lung = test system: NCI-H460 lung
SF-539 CNS = test system: SF-539 CNS
HL-60(TB) leukemia = test system: HL-60(TB) leukemia
MDA-MB-435 = test system: MDA-MB-435
SNB-19 CNS = test system: SNB-19 CNS
PC-3 prostate = test system: PC-3 prostate
RXF 393 renal = test system: RXF 393 renal
NCI-H226 lung = test system: NCI-H226 lung
OVCAR-4 ovarian = test system: OVCAR-4 ovarian
HOP-92 NSCLC = test system: HOP-92 NSCLC
NCI/ADR-RES ovarian = test system: NCI/ADR-RES ovarian
SW-620 colon = test system: SW-620 colon
NCI-H23 lung = test system: NCI-H23 lung
M14 melanoma = test system: M14 melanoma
MDA-MB-231 breast = test system: MDA-MB-231 breast
T-47D breast = test system: T-47D breast
CAKI-1 renal = test system: CAKI-1 renal
IGROV1 ovarian = test system: IGROV1 ovarian
HCC-2998 colon = test system: HCC-2998 colon
UACC-257 melanoma = test system: UACC-257 melanoma
SNB-75 CNS = test system: SNB-75 CNS
A549 NSCLC = test system: A549 NSCLC
BT-549 breast = test system: BT-549 breast
HS 578T breast = test system: HS 578T breast
HCT-15 colon = test system: HCT-15 colon
SF-295 CNS = test system: SF-295 CNS
SN12C renal = test system: SN12C renal
HCT-116 colon = test system: HCT-116 colon
SK-MEL-5 melanoma = test system: SK-MEL-5 melanoma
SK-OV-3 ovarian = test system: SK-OV-3 ovarian
CCRF-CEM leukemia = test system: CCRF-CEM leukemia
ACHN renal = test system: ACHN renal
OVCAR-3 ovarian = test system: OVCAR-3 ovarian
OVCAR-8 ovarian = test system: OVCAR-8 ovarian
SK-MEL-2 melanoma = test system: SK-MEL-2 melanoma
NCI-H522 lung = test system: NCI-H522 lung
COLO 205 colon = test system: COLO 205 colon
HT29 colon = test system: HT29 colon
SK-MEL-28 melanoma = test system: SK-MEL-28 melanoma
UO-31 renal = test system: UO-31 renal
DU-145 prostate = test system: DU-145 prostate
UACC-62 melanoma = test system: UACC-62 melanoma
MCF7 breast = test system: MCF7 breast

COc1cc(-c2cc(/C=C3\C(=O)Nc4ccc(Cl)cc43)[nH]n2)cc(OC)c1OC
GI50 (K-562 leukemia): 4.05 µM
TGI (K-562 leukemia): > 100 µM
GI50 (OVCAR-5 ovarian): 27.9 µM
TGI (OVCAR-5 ovarian): > 100 µM
GI50 (SR leukemia): 3.06 µM
TGI (SR leukemia): 12.7 µM
GI50 (HOP-62 NSCLC): 5.14 µM
TGI (HOP-62 NSCLC): > 100 µM
GI50 (LOX IMVI melanoma): 3.45 µM
TGI (LOX IMVI melanoma): 22.7 µM
GI50 (RPMI-8226 leukemia): 1.88 µM
TGI (RPMI-8226 leukemia): 4.81 µM
GI50 (786-0 renal): 15.2 µM
TGI (786-0 renal): > 100 µM
GI50 (MOLT-4 leukemia): 2.7 µM
TGI (MOLT-4 leukemia): 8.87 µM
GI50 (U251 CNS): 5.37 µM
TGI (U251 CNS): > 100 µM
GI50 (A498 renal): 1.07 µM
TGI (A498 renal): 7.24 µM
GI50 (TK-10 renal): 8.15 µM
TGI (TK-10 renal): 92.7 µM
GI50 (MALME-3M melanoma): 2.71 µM
TGI (MALME-3M melanoma): 8.63 µM
GI50 (SF-268 CNS): 35.3 µM
TGI (SF-268 CNS): > 100 µM
GI50 (KM12 colon): 3.3 µM
TGI (KM12 colon): > 100 µM
GI50 (NCI-H460 lung): 5.03 µM
TGI (NCI-H460 lung): > 100 µM
GI50 (SF-539 CNS): 6.7 µM
TGI (SF-539 CNS): 26.3 µM
GI50 (HL-60(TB) leukemia): 2.26 µM
TGI (HL-60(TB) leukemia): 6.82 µM
GI50 (MDA-MB-435): 3.97 µM
TGI (MDA-MB-435): > 100 µM
GI50 (SNB-19 CNS): 5.04 µM
TGI (SNB-19 CNS): > 100 µM
GI50 (PC-3 prostate): 2.51 µM
TGI (PC-3 prostate): 18.9 µM
GI50 (RXF 393 renal): 9.21 µM
TGI (RXF 393 renal): > 100 µM
GI50 (NCI-H226 lung): 3.84 µM
TGI (NCI-H226 lung): 26.5 µM
GI50 (OVCAR-4 ovarian): 5.11 µM
TGI (OVCAR-4 ovarian): > 100 µM
GI50 (HOP-92 NSCLC): 1.45 µM
TGI (HOP-92 NSCLC): 16.8 µM
GI50 (NCI/ADR-RES ovarian): 3.73 µM
TGI (NCI/ADR-RES ovarian): > 100 µM
GI50 (SW-620 colon): 6.1 µM
TGI (SW-620 colon): > 100 µM
GI50 (NCI-H23 lung): 4.95 µM
TGI (NCI-H23 lung): > 100 µM
GI50 (M14 melanoma): 3.09 µM
TGI (M14 melanoma): 14 µM
GI50 (MDA-MB-231 breast): 4.41 µM
TGI (MDA-MB-231 breast): > 100 µM
GI50 (T-47D breast): 2.6 µM
TGI (T-47D breast): 18.3 µM
GI50 (CAKI-1 renal): 2.82 µM
TGI (CAKI-1 renal): 20.5 µM
GI50 (IGROV1 ovarian): 6.34 µM
TGI (IGROV1 ovarian): > 100 µM
GI50 (HCC-2998 colon): 64 µM
TGI (HCC-2998 colon): > 100 µM
GI50 (UACC-257 melanoma): 2.7 µM
TGI (UACC-257 melanoma): 11.6 µM
GI50 (SNB-75 CNS): 3.44 µM
TGI (SNB-75 CNS): 27.9 µM
GI50 (A549 NSCLC): 7.08 µM
TGI (A549 NSCLC): > 100 µM
GI50 (BT-549 breast): 2.52 µM
TGI (BT-549 breast): 7.16 µM
GI50 (HS 578T breast): 5.03 µM
TGI (HS 578T breast): > 100 µM
GI50 (HCT-15 colon): 3.6 µM
TGI (HCT-15 colon): > 100 µM
GI50 (SF-295 CNS): 3.96 µM
TGI (SF-295 CNS): 34.4 µM
GI50 (SN12C renal): 5.72 µM
TGI (SN12C renal): > 100 µM
GI50 (HCT-116 colon): 4.7 µM
TGI (HCT-116 colon): 69.3 µM
GI50 (SK-MEL-5 melanoma): 1.46 µM
TGI (SK-MEL-5 melanoma): 3.22 µM
GI50 (SK-OV-3 ovarian): 49.3 µM
TGI (SK-OV-3 ovarian): > 100 µM
GI50 (CCRF-CEM leukemia): 3.02 µM
TGI (CCRF-CEM leukemia): 26.7 µM
GI50 (ACHN renal): 3.46 µM
TGI (ACHN renal): 15.2 µM
GI50 (OVCAR-3 ovarian): 6.16 µM
TGI (OVCAR-3 ovarian): 71.6 µM
GI50 (OVCAR-8 ovarian): 4.31 µM
TGI (OVCAR-8 ovarian): > 100 µM
GI50 (SK-MEL-2 melanoma): 3.52 µM
TGI (SK-MEL-2 melanoma): 21 µM
GI50 (NCI-H522 lung): 3.12 µM
TGI (NCI-H522 lung): 14.5 µM
GI50 (COLO 205 colon): 2.92 µM
TGI (COLO 205 colon): 14.9 µM
GI50 (HT29 colon): 7.54 µM
TGI (HT29 colon): 45.1 µM
GI50 (SK-MEL-28 melanoma): 7.37 µM
TGI (SK-MEL-28 melanoma): 72.4 µM
GI50 (UO-31 renal): 2.81 µM
TGI (UO-31 renal): 23.6 µM
GI50 (DU-145 prostate): 9.54 µM
TGI (DU-145 prostate): > 100 µM
GI50 (UACC-62 melanoma): 1.73 µM
TGI (UACC-62 melanoma): 3.9 µM
GI50 (MCF7 breast): 3.15 µM
TGI (MCF7 breast): > 100 µM
